# From patent US20230355613A1, “METHODS FOR TREATING PANCREATIC DUCTAL ADENOCARCINOMA” (HEALTH RESEARCH, INC., priority 2022, published 2023)
# Legend:
# Panc1 cells = assay: RNA-seq of JTE-607 treated cells (APA, read-through, differential expression analysis); type: cell-based, human; conditions: Panc1, H3F3A and H2AZ1 normalized counts
# From the text: mRNA regulation is distinct between knockdown and chemical inhibition of CPSF3. Because JTE-607 inhibits CPSF3 catalytic activity without inducing target degradation, it was sought to understand if the function of CPSF3 is distinct between knockdown and inhibition. As CPSF3 is an integral component of the polyadenylation complex and the histone cleavage complex (HCC), it was hypothesized that CPSF3 disruption would dysregulate both alternative polyadenylation (APA) and histone mRNA processing. To test this hypothesis, CPSF3 knockdown and JTE-607 treated Panc1 cells were subjected to RNA-sequencing (RNA-seq). […] In the CPSF3 knockdown cells, PolyAMiner-Bulk detected 85 significant DAGs, of which 43 genes underwent 3′UTR lengthening (PolyAIndex>0.5; Padj<0.05) and 42 genes underwent 3′UTR shortening (PolyAIndex <−0.5; Padj<0.05) (FIG. 3A). In the CPSF3 inhibition model, PolyAMiner-Bulk detected 174 significant DAGs, of which 138 underwent 3′UTR lengthening (PolyAIndex>0.5; Padj<0.05) and 36 genes underwent 3′UTR shortening (PolyAIndex <−0.5; Padj<0.05) (FIG. 3B). […]
# JTE-607 inhibits expression of replication-dependent histones. JTE-607 induces global transcriptional read-through in Ewing's sarcoma cells. Therefore, it was asked whether JTE-607 would similarly induce global read-through in PDAC cells by applying the ARTDeco algorithm. […]
# MiaPaCa2 cells = assay: mRNA expression of RD histones (H2B, H3) by qPCR; type: cell-based, human
# From the text: (C) Heatmap of top differentially expressed genes upon JTE-607 treatment. Replication-dependent histones are colored in blue. Expression is plotted as transformed expression value. (D) mRNA expression of H2B and H3 in MiaPaCa2 cells treated with JTE-607. *, P<0.05, **, P<0.01, ***, P<0.001, Ordinary one-way ANOVA with Dunnett's multiple comparisons test. (E) DSeq2 normalized counts of H3F3A and H2AZ1 histone variants (replication-independent) in Panc1 cells treated with JTE-607. […]. (F-H) Volcano plots of Spearman's correlation of CPSF3 and all histone genes (F), replication-dependent histone genes (G) and replication-independent histone genes (H). Each dot represents a histone gene. Blue and red dots denote positive and negative correlation, respectively. (Spearman=−0.15>R>0.15, P<0.05).
# As JTE-607 has been previously administered to patients with no cytotoxic effects, we wanted to determine the mechanism underlying the ability of JTE-607 to attenuate PDAC cell proliferation. […] The Spearman's correlation for CPSF3 and 98 histone genes from the CPTAC database (Spearman=−0.15>R>0.15, P<0.05) (FIG. 4F) were calculated. […] A signature by selecting 50 RD histones and assessed PDAC patient survival based on gene expression was generated.
# RNA isolation and quantitative PCR. […] Data were analyzed in Microsoft Excel and graphed using GraphPad Prism (v 9.3.0).
compound,measurement,setting,value
CCOC(=O)[C@H](Cc1ccccc1)NC(=O)c1cc(Cl)c(OCCN2CCN(C)CC2)c(Cl)c1O [JTE-607],expression of RI histones,Panc1 cells,not downregulated
same,"RD histone mRNA expression (H2B, H3)",MiaPaCa2 cells,decrease
